We go through three substances from patent publication US9006191B2, “Silencing of polo-like kinase expression using interfering RNA” (Protiva Biotherapeutics, Inc., priority 2007, dated 2015).

Entries after “also recorded” stand apart in the source; their conditions may differ.

The subject of one data set is PLK-1 mRNA. Kind of data set: PLK-1 mRNA silencing in cell cultures (QuantiGene branched DNA assay). Type of data set: cell-based, human. As to conditions: 0.12-30 nM SNALP, 24 h. The method, then: Target mRNA Quantitation: The QuantiGene® branched DNA assay (Panomics, Inc.; Fremont, Calif.) was used to quantify the reduction of target mRNA in cell cultures treated with SNALP. Cell lysates were prepared according to the manufacturer's instructions and used directly for PLK1 mRNA quantification. Relative PLK-1 mRNA levels are expressed relative to the vehicle (PBS) treated control cells. Specific probe sets used for detection of mRNA were designed to target human PLK-1 mRNA (Genbank Accession No. NM_005030). These probe sets are cross reactive with mouse PLK-1.
PLK-1 SNALP (“2:40” SNALP formulation: 2% PEG-cDMA; 40% DLinDMA; 10% DSPC; and 48% cholesterol) were tested for their ability to silence PLK-1 mRNA in HT29 cells. Cells were plated in duplicates at relatively high concentrations (˜10,000 cells/well). QuantiGene® analysis was performed at 24 hours following transfection to detect the level of mRNA down-regulation. A visual score of the transfected cells was obtained at 48 hours following transfection. Cell viability analysis was performed at 72 hours following transfection.
(§1) SNALP containing PLK1424 or PLK773 siRNA (“2:40” SNALP formulation: 2% PEG-cDMA; 40% DLinDMA; 10% DSPC; and 48% cholesterol) were tested for their effects on cell viability and silencing of PLK-1 mRNA in HT29 and LS174T human colon cancer cells. Cells were plated in triplicate at ˜10,000 cells/well. SNALP dosages were as follows: 30 nM; 10 nM; 3.3 nM; 1.1 nM; 0.37 nM; and 0.12 nM. Branched DNA mRNA assays were performed 24 hours following transfection. Cell viability assays were performed at 72 hours following transfection. SNALP containing a non-targeting (GFP) siRNA were used as a negative control. […] The effects on cell viability correlated with silencing of the target PLK-1 mRNA.

Data set [1] has as its system LS174T cells. Kind of data set: LS174T cell viability assay. In kind it is cell-based, human. As to conditions: SNALP-formulated siRNA, 72 h. The method, then: as §1
Data set [2] has as its system LS174T cells. Kind of data set: Apoptosis/Caspase 3/7 assay in LS174T cells. Type of data set: cell-based, human. Particulars: SNALP-formulated siRNA, 24-72 h. Here is the method: This assay is based on the specific enzymatic cleavage of the Caspase 3/7 substrate (Z-DEVD)-2-Rhodamine 110 to a fluorogenic product and is used to quantify the level of apoptosis in cultured cells.
SNALP containing PLK1424 or PLK773 siRNA (“2:40” SNALP formulation: 2% PEG-cDMA; 40% DLinDMA; 10% DSPC; and 48% cholesterol) were further tested for their effects on inducing the apoptosis of LS174T cells. Cells were plated in triplicate at ˜10,000 cells/well. SNALP dosages were as follows: 30 nM; 10 nM; and 3.3 nM. Caspase 3/7 assays were performed at 24, 48, and 72 hours following transfection. SNALP containing a non-targeting (GFP) siRNA were used as a negative control.

Data set [3] concerns Flt3-ligand derived murine dendritic cells. Kind of data set: Cytokine induction in murine Flt3L dendritic cell cultures (ELISA). As to conditions: murine Flt3L DC, 5 μg/ml siRNA in SNALP, 24 h. In kind it is cell-based, mouse. Here is the method:
Cytokine Induction Assays: Flt3-ligand derived murine dendritic cells (Flt3L DC) were generated as described by Gilliet et al. (J. Exp. Med., 195:953-958) using 100 ng/ml murine Flt3-ligand (PeproTech Inc.; Rocky Hill, N.J.) supplemented media. Femurs and tibiae of female Balb/C mice were isolated and rinsed in sterile PBS. The ends of bones were cut and marrow harvested in complete media (RPMI 1640, 10% heat inactivated FBS, 1% penicillin/streptomycin, 2 mM L-glutamine, 1 mM sodium pyruvate, 25 mM HEPES, 50 μM 2-mercaptoethanol). Bone marrow cells were passed through a 70 μm strainer, centrifuged at 1000 rpm for 7 minutes, and resuspended in complete media supplemented with 100 ng/ml murine Flt3L to 2×10^6 cells/ml. 2 mls of cells were seeded in 6-well plates and 1 ml fresh complete media added every two or three days. On day 9 of culture, non-adherent cells were washed in complete media and plated into 96-well plates at concentrations ranging from 0.5 to 2.5×10^5 cells/well. 2′OMe-modified and unmodified (0/0) PLK-1 SNALP were diluted in PBS and added to Flt3L DC cultures at 5 μg/ml siRNA. Cells were incubated for 24 hours at 37° C. before supernatants were assayed for cytokines by ELISA.
Cytokine ELISA: Interferon-α and IL-6 in culture supernatants were quantified using sandwich ELISA kits according to manufacturer's instructions. These were mouse IFN-α (PBL Biomedical; Piscataway, N.J.) and mouse IL-6 (eBioscience; San Diego, Calif.).
In vitro immune stimulation assays. Mouse Flt3L dendritic cell cultures were generated as described previously (65). In brief, bone marrow from Balb/C mice was harvested in complete media (RPMI 1640, 10% FBS, 1% penicillin/streptomycin, 2 mM L-glutamine, 1 mM sodium pyruvate, 25 mM HEPES, 50 uM 2-mercaptoethanol), passed through a 70 micron strainer and resuspended to 2×10^6 cells/mL in complete media supplemented with 100 ng/mL murine Flt3L (Peprotech). Cells were seeded in 6-well plates and 1 mL fresh Flt3L media added every three days. On day 9 of culture, non-adherent cells were plated into 96 well plates at a concentration 2×10^5 cells/well. Formulated siRNA were diluted in PBS and added to the cells for 24 h before supernatants were assayed for cytokines by ELISA.
Cytokine ELISA. All cytokines were quantified using sandwich ELISA kits.
(In general: In an ELISA, binding on a coated surface is turned into a signal by an enzyme label.)

With “PLK773: siRNA to human PLK-1, SEQ ID NO:3/4 (UU overhang form 218/219) (chain 1 AGACCUACCUCCGGAUCAA; chain 2 UUGAUCCGGAGGUAGGUCU; RNA, backbone not given here)”, the “PLK-1 mRNA levels” value in the data set with PLK-1 mRNA (HT29 cells) and in the data set on PLK-1 mRNA (LS174T cells) was “effective at reducing PLK-1 mRNA levels” in each case. Also, the “cell viability / inhibition of cell growth” value in the data set on LS174T cells [1] is listed as “inhibiting cell growth”. Further, the “induction of apoptosis (Caspase 3/7 activity)” value with LS174T cells [2] was “induced a significant amount of apoptosis in LS174T cells at all SNALP doses tested”. Moreover, in data set [3], the “cytokine (IL-6, IFN-α) response” value was “high levels of both IFNα and IL-6”.
Turning to “PLK1424-2/A: 2′OMe-modified PLK1424 duplex, SEQ ID NO:214/215 (same SEQ IDs as PLK1424 1/3 of Table 11) (chain 1 AGANCACCCNCCUNAAANAUU; chain 2 UAUUUAANGAGGGUGANCUUU; siRNA; 2'-O-methyl modifications at selected positions, key for n not given here)”, in data set [3], the “cytokine (IL-6, IFN-α) response” value is reported as “completely abrogated”.
Take “PLK1424: siRNA to human PLK-1, SEQ ID NO:1/2 (UU overhang form 211/212) (chain 1 AGAUCACCCUCCUUAAAUA; chain 2 UAUUUAAGGAGGGUGAUCU; further chemistry not given here)”: the “PLK-1 mRNA levels” value in the data set on PLK-1 mRNA (HT29 cells) and in the data set on PLK-1 mRNA (LS174T cells) was “effective at reducing PLK-1 mRNA levels” throughout. For the same substance, the “cell viability / inhibition of cell growth” value in the data set on LS174T cells [1] is listed as “inhibiting cell growth; also recorded: potent activity”. For the same substance, the “induction of apoptosis (Caspase 3/7 activity)” value with LS174T cells [2] was “induced a significant amount of apoptosis in LS174T cells at all SNALP doses tested; also recorded: dose-dependent induction of apoptosis 48 h after siRNA transfection”. In addition, the “cytokine (IL-6, IFN-α) response” value in data set [3] was “high levels of both IFNα and IL-6”.
